Measurements from ChEMBL document CHEMBL3621093, “Design, synthesis and evaluation of thiohydantoin derivatives as potent topoisomerase I (Top1) inhibitors with anticancer activity” (Eur J Med Chem, 2015).
Activity calls are given as the source filed them. The rule behind the calls is not given here.

How the values were obtained:
DNA topoisomerase 1 = target: T1, DNA topoisomerase 1 (Homo sapiens, UniProt P11387); assay: Inhibition of wild type recombinant human Top1 expressed in baculovirus infected insect Sf9 cells assessed as decrease in supercoiled pBS(SK+) DNA isomer relaxation preincubated for 5 mins followed by pBS(SK+) DNA addition by agarose gel electrophoresis
T1 sequence (P11387 whole entry): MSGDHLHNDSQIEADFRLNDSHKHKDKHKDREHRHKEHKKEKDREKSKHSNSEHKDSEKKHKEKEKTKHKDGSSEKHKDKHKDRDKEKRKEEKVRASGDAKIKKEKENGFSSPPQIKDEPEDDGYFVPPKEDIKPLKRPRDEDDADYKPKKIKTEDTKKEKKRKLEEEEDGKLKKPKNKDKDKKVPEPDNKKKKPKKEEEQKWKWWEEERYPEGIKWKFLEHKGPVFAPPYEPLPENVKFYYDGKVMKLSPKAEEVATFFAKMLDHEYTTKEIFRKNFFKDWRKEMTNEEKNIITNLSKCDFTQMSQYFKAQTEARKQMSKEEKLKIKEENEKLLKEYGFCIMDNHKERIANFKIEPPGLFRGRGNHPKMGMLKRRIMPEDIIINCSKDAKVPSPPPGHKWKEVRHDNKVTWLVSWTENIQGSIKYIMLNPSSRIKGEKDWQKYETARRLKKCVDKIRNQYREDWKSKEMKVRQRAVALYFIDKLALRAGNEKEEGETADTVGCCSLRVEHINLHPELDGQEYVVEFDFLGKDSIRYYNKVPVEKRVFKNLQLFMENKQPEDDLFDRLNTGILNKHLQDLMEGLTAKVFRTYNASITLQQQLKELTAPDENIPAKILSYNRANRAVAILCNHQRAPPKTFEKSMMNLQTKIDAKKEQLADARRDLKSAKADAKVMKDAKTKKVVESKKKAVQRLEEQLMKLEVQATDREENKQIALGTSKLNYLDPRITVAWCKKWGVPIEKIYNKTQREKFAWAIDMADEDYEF

[1] = Inhibition of Leishmania donovani Top1 (large/ small subunits) expressed in Escherichia coli BL21 (DE3) pLysS cells assessed as decrease in supercoiled pBS(SK+) DNA isomer relaxation preincubated for 5 mins followed by pBS(SK+) DNA addition by agarose gel electrophoresis
[2] = target: T2, DNA topoisomerase 1 (Homo sapiens) (UniProt P11387); assay: Inhibition of wild type recombinant human Top1 expressed in baculovirus infected insect Sf9 cells assessed as decrease in supercoiled pBS(SK+) DNA isomer relaxation at 5 to 200 uM incubated simultaneously with enzyme and pBS(SK+) DNA for 30 mins by agarose gel electrophoresis
T2 sequence (whole entry): T1 sequence (P11387 whole entry)

Leishmania donovani = assay: Inhibition of Leishmania donovani Top1 (large/ small subunits) expressed in Escherichia coli BL21 (DE3) pLysS cells assessed as decrease in supercoiled pBS(SK+) DNA isomer relaxation at 5 to 200 uM incubated simultaneously with enzyme and pBS(SK+) DNA for 30 mins by agarose gel electrophoresis
[3] = target: T2, DNA topoisomerase 1 (Homo sapiens); assay: Inhibition of human Top1 in human MCF7 cells assessed as decrease in supercoiled pBS(SK+) DNA isomer relaxation at 5 to 200 uM preincubated for 5 mins followed by pBS(SK+) DNA addition by agarose gel electrophoresis; type: cell-based
[4] = target: T2, DNA topoisomerase 1 (Homo sapiens); assay: Inhibition of human Top1 in human MCF7 cells assessed as decrease in supercoiled pBS(SK+) DNA isomer relaxation at 5 to 200 uM incubated simultaneously with enzyme and pBS(SK+) DNA for 30 mins by agarose gel electrophoresis; type: cell-based
[5] = target: T2, DNA topoisomerase 1 (Homo sapiens); assay: Inhibition of wild type recombinant human Top1 expressed in baculovirus infected insect Sf9 cells assessed as stabilization of Top1-cleavage complexes at 50 to 200 uM incubated for 30 mins by agarose gel electrophoresis
MCF7 = assay: Cytotoxicity against human MCF7 cells assessed as inhibition of cell viability after 72 hrs by MTT assay; type: functional, cell-based; settings: MCF7, 72 h
HeLa = assay: Cytotoxicity against human HeLa cells assessed as inhibition of cell viability after 72 hrs by MTT assay; type: functional, cell-based
HCT-116 = assay: Cytotoxicity against human HCT116 cells assessed as inhibition of cell viability after 72 hrs by MTT assay; type: functional, cell-based; settings: HCT-116, 72 h
[6] = Toxicity in HEK293 cells assessed as inhibition of cell viability after 72 hrs by MTT assay; type: cell-based; settings: human

SMILES	EC50 (DNA topoisomerase 1) [µM]	EC50 [1] [µM]	also measured
COc1ccc(/C=C2/NC(=O)NC2=O)cc1OC	> 100	> 100	
O=C1NC(=O)/C(=C\c2cc(Br)cs2)N1	> 100	> 100	
COc1ccc(/C=C2/NC(=S)NC2=O)cc1OC	> 100	> 100	
COc1cc(/C=C2/NC(=O)NC2=O)cc(OC)c1OC	> 100	> 100	
COc1ccc(/C=C2/NC(=S)NC2=O)cc1	> 100	> 100	
COc1ccc(/C=C2/NC(=O)NC2=O)cc1C	> 100	> 100	
Cc1ccc(/C=C2/NC(=O)NC2=O)cc1	> 100	> 100	
Cc1cc(C)cc(/C=C2/NC(=O)NC2=O)c1	> 100	> 100	
O=C1NC(=S)N/C1=C/c1ccc(-c2cccnc2)s1	27.7	54.8	
COc1ccc(-c2csc(/C=C3/NC(=O)NC3=O)c2)cn1	> 100	> 100	
COc1cccc(/C=C2/NC(=S)NC2=O)c1	> 100	> 100	
COc1ccc(-c2ccc(/C=C3/NC(=S)NC3=O)s2)cn1	10.1	65.2	inhibition [2]: Active; inhibition (Leishmania donovani): Active; inhibition [3]: Active; inhibition [4]: Active; inhibition [5]: Active; IC50 (MCF7): 11.4 µM; IC50 (HeLa): 1.1 µM; IC50 (HCT-116): > 50 µM; IC50 at 72 h [6]: > 50 µM
COc1ccc(-c2ccc(/C=C3/NC(=O)NC3=O)s2)cn1	> 100	> 100	
Cc1ccc(/C=C2/NC(=S)NC2=O)cc1	> 100	> 100	
Cn1cc(/C=C2/NC(=S)NC2=O)c2ccccc21	48.9	> 100	
O=C1NC(=S)N/C1=C/c1ccc([N+](=O)[O-])cc1	> 100	> 100	
O=C1NC(=S)N/C1=C/c1cc(Br)cs1	> 100	> 100	
COc1cc(/C=C2/NC(=S)NC2=O)cc(OC)c1OC	93.2	> 100	
COc1ccc(-c2csc(/C=C3/NC(=S)NC3=O)c2)cn1	30.3	63.1	
COc1ccc(/C=C2/NC(=S)NC2=O)cc1C	> 100	> 100	
